# Experimental data reported in US6608003B2, “Herbicidal solutions comprising fatty acid ammonium salts and dicarboxylic acid diesters and methods of using the same” (Falcon Lab LLC, priority 2000, dated 2003).
# Tests used:
# Solubility in water = assay type: physicochemical
# [1] = Solubility of the diester in 40% aqueous ammonium pelargonate solution; assay type: physicochemical; settings: for amount of ester that dissolves in 100 g of 40% ammonium pelargonate to give a clear composition: 22 deg, successive additions of 99% ester; for dissolved diester content of the clear aqueous ammonium pelargonate composition: by weight, 40% (saturated) ammonium pelargonate solution
# Experimental: A 40% solution of ammonium pelargonate was prepared by slowly adding 33 g. of 28% ammonium hydroxide to a stirred mixture of 89.3 g. of nonanoic acid (commercial pelargonic acid from Cognis Corp.) and 124.3 g. of distilled water.
# To 361 gm. (2.29 mole) of technical pelargonic acid was added slowly with stirring a solution of 139 gm. of 28% ammonium hydroxide (2.29 mole NH3) in 500 ml. of deionized water.
# A 40% solution of ammonium pelargonate was prepared by slowly adding 33 g. of 28% ammonium hydroxide to a stirred mixture of 89.3 g. of nonanoic acid (commercial pelargonic acid from Cognis Corp.) and 124.3 g. of distilled water. […]
solubility in water (in words) (Solubility in water),amount of ester that dissolves in 100 g of 40% ammonium pelargonate to give a clear composition [1],dissolved diester content of the clear aqueous ammonium pelargonate composition [1],Structure (SMILES)
insoluble in water,19.3 g,16.2%,"COC(=O)CCCCCCC(=O)OC [dimethyl suberate, Dimethyl suberate]"
insoluble in water,22.5 g,17.9%,"COC(=O)CCCCCC(=O)OC [dimethyl pimelate, Dimethyl pimelate]"
